Experimental data as given in patent US20240041042A1, “1-(PYRIDYL)-5-AZINYLPYRAZOLE DERIVATIVES, AND THEIR USE FOR CONTROL OF UNDESIRED PLANT GROWTH” (Bayer Aktiengesellschaft, priority 2020, published 2024).
Like-named read-outs stand apart in the source and are kept apart here.

Legend:
Assay type in all cases: in vivo
Avena fatua (AVEFA) [1] = assay: Post-emergence herbicidal action against AVEFA; conditions: visual rating about 3 weeks after treatment
Method: (§1) Seeds of monocotyledonous and dicotyledonous weeds and crop plants are placed in sandy loam in plastic or organic planting pots, covered with soil and cultivated in a greenhouse under controlled growth conditions. 2 to 3 weeks after sowing, the test plants are treated at the one-leaf stage. The compounds of the invention, formulated in the form of wettable powders (WP) or as emulsion concentrates (EC), are then sprayed onto the green parts of the plants as aqueous suspension or emulsion with addition of 0.5% additive at a water application rate of 600 l/ha (converted). After the test plants have been kept in the greenhouse under optimum growth conditions for about 3 weeks, the activity of the preparations is rated visually in comparison to untreated controls. For example, 100% activity=the plants have died, 0% activity=like control plants.
(§2) Tables B1 to B13 below show the effects of selected compounds of the general formula (I) according to Table 1 on various harmful plants and at an application rate corresponding to 320 g/ha or lower, which were obtained by the experimental procedure mentioned above. The appendices “a”, “b” and “c” give differentiation by dosage used with otherwise the same harmful plants tested.

[2] = system: Pharbitis purpurea (PHBPU); assay: Pre-emergence herbicidal action against PHBPU; conditions: dosage 320 g/ha
Source text: (§3) Seeds of monocotyledonous and dicotyledonous weed plants and crop plants are placed in plastic or organic planting pots and covered with soil. The compounds of the invention, formulated in the form of wettable powders (WP) or as emulsion concentrates (EC), are then applied to the surface of the covering soil as aqueous suspension or emulsion with addition of 0.5% additive at a water application rate equivalent to 600 l/ha. After the treatment, the pots are placed in a greenhouse and kept under good growth conditions for the trial plants. After about 3 weeks, the effect of the preparations is scored visually in comparison with untreated controls as percentages. For example, 100% activity=the plants have died, 0% activity=like control plants.
(§4) Tables A1 to A13 below show the effects of selected compounds of the general formula (I) on various harmful plants and at an application rate corresponding to 320 g/ha or lower, which were obtained by the experimental procedure mentioned above. The appendices “a”, “b” and “c” give differentiation by dosage used with otherwise the same harmful plants tested.

Avena fatua (AVEFA) [3] = assay: Pre-emergence herbicidal action against AVEFA; conditions: visual scoring after about 3 weeks vs untreated controls
Source text: as §3, §4

[4] = system: Polygonum convolvulus (POLCO); assay: Pre-emergence herbicidal action against POLCO
Source text: as §3, §4

[5] = system: Verconica persica (VERPE); assay: Post-emergence herbicidal action against VERPE
Method: as §1, §2

[6] = system: Verconica persica (VERPE); assay: Pre-emergence herbicidal action against VERPE
Source text: as §3, §4

[7] = system: Matricaria inodora (MATIN); assay: Pre-emergence herbicidal action against MATIN; conditions: dosage 320 g/ha
Source text: as §3, §4

[8] = system: Amaranthus retroflexus (AMARE); assay: Pre-emergence herbicidal action against AMARE; conditions: visual scoring after about 3 weeks vs untreated controls
Source text: as §3, §4

Lolium rigidum (LOLRI) [9] = assay: Pre-emergence herbicidal action against LOLRI
Source text: as §3, §4

[10] = system: Echinochloa crus-galli (ECHCG); assay: Post-emergence herbicidal action against ECHCG
Method: as §1, §2

Viola tricolor (VIOTR) [11] = assay: Pre-emergence herbicidal action against VIOTR
Source text: as §3, §4

[12] = system: Alopecurus myosuroides (ALOMY); assay: Post-emergence herbicidal action against ALOMY; conditions: visual rating about 3 weeks after treatment vs untreated controls (100% = plants have died, 0% = like control plants)
Method: as §1, §2

Setaria viridis (SETVI) [13] = assay: Pre-emergence herbicidal action against SETVI
Source text: as §3, §4

Viola tricolor (VIOTR) [14] = assay: Post-emergence herbicidal action against VIOTR
Method: as §1, §2

[15] = system: Pharbitis purpurea (PHBPU); assay: Post-emergence herbicidal action against PHBPU; conditions: dosage 80 g/ha
Method: as §1, §2

[16] = system: Alopecurus myosuroides (ALOMY); assay: Pre-emergence herbicidal action against ALOMY; conditions: scored visually after about 3 weeks, 100% = plants have died
Source text: as §3, §4

Lolium rigidum (LOLRI) [17] = assay: Post-emergence herbicidal action against LOLRI
Method: as §1, §2

Oryza sativa (ORYSA) = conditions: crop plant compatibility
Method: as §1
(§5) The observed effects on selected crop plants are reported here in comparison to the untreated controls (values in %). The appendices “a”, “b” and “c” give differentiation by dosage used with otherwise the same crop plants tested.

Zea mays (ZEAMX) = conditions: for Post-emergence action against ZEAMX in % (crop plant compatibility): 20 g/ha, effect in comparison to untreated controls; for Post-emergence action against ZEAMX in %: crop plant compatibility, 80 g/ha, effect vs untreated controls
Method: as §1, §5

[18] = system: Echinochloa crus-galli (ECHCG); assay: Pre-emergence herbicidal action against ECHCG; conditions: dosage 320 g/ha
Source text: as §3, §4

[19] = system: Abutilon theophrasti (ABUTH); assay: Post-emergence herbicidal action against ABUTH; conditions: 320 g/ha, visual rating about 3 weeks after treatment vs untreated controls (100% = plants have died, 0% = like control plants)
Method: as §1, §2

Setaria viridis (SETVI) [20] = assay: Post-emergence herbicidal action against SETVI
Method: as §1, §2

[21] = system: Amaranthus retroflexus (AMARE); assay: Post-emergence herbicidal action against AMARE
Method: as §1, §2

[22] = system: Polygonum convolvulus (POLCO); assay: Post-emergence herbicidal action against POLCO
Method: as §1, §2

[23] = 20 g/ha, effect vs untreated controls
[24] = 80 g/ha, effect in comparison to untreated controls

Structure (SMILES)	Post-emergence action against AVEFA in % (Avena fatua (AVEFA) [1]; 80 g/ha)	Pre-emergence action against PHBPU in % [2]	Pre-emergence action against AVEFA in % (Avena fatua (AVEFA) [3]; 320 g/ha)	Pre-emergence action against POLCO in % ([4]; dosage 80 g/ha)	Pre-emergence action against POLCO in % ([4]; dosage 320 g/ha)	Pre-emergence action against VERPE in % ([6]; dosage 320 g/ha)	Pre-emergence action against MATIN in % [7]	Pre-emergence action against AMARE in % ([8]; 80 g/ha)	Pre-emergence action against AMARE in % ([8]; 320 g/ha)	Pre-emergence action against LOLRI in % (Lolium rigidum (LOLRI) [9]; dosage 80 g/ha)	Pre-emergence action against LOLRI in % (Lolium rigidum (LOLRI) [9]; dosage 320 g/ha)	Post-emergence action against ECHCG in % ([10]; dosage 80 g/ha)	Pre-emergence action against VIOTR in % (Viola tricolor (VIOTR) [11]; 320 g/ha, Viola tricolor)	Pre-emergence action against VIOTR in % (Viola tricolor (VIOTR) [11]; dosage 80 g/ha)	Post-emergence action against ALOMY in % ([12]; 80 g/ha)	Pre-emergence action against SETVI in % (Setaria viridis (SETVI) [13]; dosage 80 g/ha)	Pre-emergence action against SETVI in % (Setaria viridis (SETVI) [13]; dosage 320 g/ha)	Pre-emergence action against ALOMY ([16]; 80 g/ha)	Pre-emergence action against ALOMY ([16]; 320 g/ha)	Pre-emergence action against ECHCG in % [18]	other results
CCOC(=O)[C@@H](C)Oc1nn(-c2ncccc2F)c(-c2ccc(F)nc2)c1Cl [Example I-32]	90%	80%	100%	90%	90%	100%	90%	90%	100%	90%	100%	80%	100%	100%	90%	100%	100%	90%	100%	100%	Pre-emergence action against AVEFA in % (Avena fatua (AVEFA) [3]; 80 g/ha): 90%; Post-emergence action against VERPE in % ([5]; dosage 80 g/ha): 80%; Pre-emergence action against VERPE in % ([6]; dosage 80 g/ha): 80%; Post-emergence action against VIOTR in % (Viola tricolor (VIOTR) [14]; 80 g/ha): 80%; Post-emergence action against PHBPU in % [15]: 80%; Post-emergence action against LOLRI in % (Lolium rigidum (LOLRI) [17]; dosage 80 g/ha): 90%; Post-emergence action against ORYSA in % (Oryza sativa (ORYSA); [23]): 0%; Post-emergence action against ORYSA in % (Oryza sativa (ORYSA); [24]): 0%; Post-emergence action against ZEAMX in % (crop plant compatibility) (Zea mays (ZEAMX)): 20%
COC(=O)C(C)NC(=O)[C@@H](C)Oc1nn(-c2ccccn2)c(-c2ccc(F)nc2)c1Cl (stereo partly shown) [Example I-358]	90%	80%	80%	80%	90%			80%	100%	100%	100%		100%	80%	90%		100%	80%	100%	100%	Post-emergence action against ABUTH in % [19]: 80%; Post-emergence action against AVEFA in % (Avena fatua (AVEFA) [1]; 320 g/ha): 90%; Post-emergence action against SETVI in % (Setaria viridis (SETVI) [20]; dosage 320 g/ha): 90%; Post-emergence action against AMARE in % ([21]; 320 g/ha, visual rating about 3 weeks after treatment): 90%; Post-emergence action against VERPE in % ([5]; 320 g/ha, VERPE): 80%; Post-emergence action against ECHCG in % ([10]; dosage 320 g/ha): 90%; Post-emergence action against POLCO in % ([22]; dosage 80 g/ha): 90%; Post-emergence action against POLCO in % ([22]; dosage 320 g/ha): 90%; Post-emergence action against ALOMY in % ([12]; 320 g/ha): 90%; Post-emergence action against VIOTR in % (Viola tricolor (VIOTR) [14]; 80 g/ha): 90%; Post-emergence action against VIOTR in % (Viola tricolor (VIOTR) [14]; 320 g/ha): 90%; Post-emergence action against LOLRI in % (Lolium rigidum (LOLRI) [17]; dosage 80 g/ha): 90%; Post-emergence action against LOLRI in % (Lolium rigidum (LOLRI) [17]; dosage 320 g/ha): 90%; Post-emergence action against ORYSA in % (Oryza sativa (ORYSA); [24]): 0%; Post-emergence action against ORYSA in % (Oryza sativa (ORYSA); 320 g/ha, effect in comparison to untreated controls): 0%; Post-emergence action against ZEAMX in % (Zea mays (ZEAMX)): 0%
O=C(O)COc1nn(-c2ncccc2F)c(-c2ccc(F)nc2)c1C1CC1 [Example I-43]	90%	80%	100%		80%	90%	80%	80%	90%	90%	100%	90%	100%	100%	90%	100%	100%	100%	100%	100%	Post-emergence action against SETVI in % (Setaria viridis (SETVI) [20]; dosage 80 g/ha): 90%; Post-emergence action against AMARE in % ([21]; 80 g/ha, visual rating about 3 weeks after treatment vs untreated controls (100% = plants have died, 0% = like control plants)): 80%; Post-emergence action against ORYSA in % (Oryza sativa (ORYSA); [23]): 10%; Post-emergence action against ZEAMX in % (crop plant compatibility) (Zea mays (ZEAMX)): 10%; Post-emergence action against ZEAMX in % (Zea mays (ZEAMX)): 10%
